“And” between values parts separate entries of the source, which are not always exact repeats. Identical values can stand only once.
Experiments:
H. nana = tested on: H. nana; design: key: “+++” indicates a complete reduction of worms at 25 mg/kg dosing (×1); “++” indicates complete reduction of worms at 500 mg/kg dosing (×1); “+” indicates less than 90% worm reduction at 500 mg/kg dosing (×1); “0” indicates no effect at 500 mg/kg dosing (×1); settings: mouse model, dosing ×1; ref [1]; cited from earlier work
Sm.TRPMPZQ = Sm.TRPMPZQ (Schistosoma mansoni, UniProt A0A5K4F0X5); assay: cell-based; assay type: cell-based; settings: for this work: EC50 (μM) Sm.TRPMPZQ / EC50: HEK293 transient expression, mean ± SEM, n ≥ 3 independent transfections; for EC50: read-out: this work: EC50 (μM) Sm.TRPMPZQ
Description: (§1) This was done using a fluorescence-based reporter assay to measure changes in cytosolic Ca^2+ in HEK293 cells transiently expressing the individual TRPMPZQ ion channels.
(§2) Sprague et. al. Supporting Information
(§3) Cell Culture and transfection. Activation of the three TRPMPZQ orthologs1 (Sm.TRPMPZQ, Eg.TRPMPZQ and Mc.TRPMPZQ) was measured using a Ca2+ reporter assay, following transient transfection of codon-optimized constructs (Genscript) into HEK293 cells.
(§4) The HEK293 cell line (ATCC CRL-1573.3) was authenticated by STR profiling (ATCC), and cells were evaluated for mycoplasma contamination by monthly scheduled testing (LookOut® Mycoplasma PCR Detection Kit, Sigma). HEK293 cells were cultured at 37 °C in a humidified incubator in Dulbecco’s Modified Eagle Medium (DMEM) supplemented with 10% fetal bovine serum (FBS), penicillin (100 units/mL), streptomycin (100 μg/mL), and L-glutamine (290 μg/mL). Cells were transfected using Lipofectamine-2000 at a density of 3x10^6 cells per petri dish (100 mm diameter) 24 h prior to replating into 384 well plates for functional assays.
(§5) Ca2+ imaging assays. Ca2+ imaging assays were performed using a Fluorescence Imaging Plate Reader (FLIPR TETRA, Molecular Devices). HEK293 cells (naïve or transfected) were seeded (20,000 cells/well) in a black-walled clear-bottomed poly-d-lysine coated 384-well plate (Greiner Bio-One) in DMEM growth media supplemented with 10% FBS. After 24 h, growth medium was removed, and cells were loaded with a fluorescent Ca2+ indicator (Fluo-4 NW dye, Invitrogen) by incubation (20 µL per well, 1 h at 37°C) in Hanks' balanced salt solution (HBSS) assay buffer containing probenecid (2.5 mM) and HEPES (20 mM). Drug dilutions were prepared in assay buffer, without probenecid and dye, in ‘V’-shape 384-well plates (Greiner Bio-one, Germany). After indicator loading, the Ca2+ assay was performed at room temperature. Basal fluorescence was monitored for 20 s, then 5 μL of each drug added, and the signal (raw fluorescence units) was monitored over an additional 250 s. Changes in fluorescence were calculated by subtracting the average basal fluorescence (averaged values between 0 to 20 s) from the maximum fluorescence value. These values were normalized to the response of (±)-PZQ at the corresponding TRPMPZQ channel and plotted. Concentration-response curves were generated in GraphPad Prism (v.
(§6) 9.5.1) using the default three -parameter curve fitting and constraining the bottom of the curve to 0%. The reported EC 50 values represent the mean ± SEM of n ≥ 3 independent transfections. […]

S. mansoni [1] = tested on: S. mansoni; design: key: “+++” indicates a complete reduction of worms at 50 mg/kg dosing (×5); “++” indicates complete reduction of worms at 500 mg/kg dosing (×5); “+” indicates less than 90% worm reduction at 500 mg/kg dosing (×5); “0” indicates no effect at 500 mg/kg dosing (×5); settings: mouse model, dosing ×5; ref [1]; cited from earlier work
Eg.TRPMPZQ = Eg.TRPMPZQ (Echinococcus granulosus, UniProt W6UVV9); assay type: cell-based; settings: Eg.TRPMPZQ and Mc.TRPMPZQ; for activity at cestode TRPMPZQ orthologs (in words): both cestode channels
Description: as §1, §2, §3, §4, §5, §6

S. mansoni [2] = settings: ref [1]; cited from earlier work
[3] = tested on: E. multilocularis protoscoleces; assay: Cestode motility assay on protoscoleces; assay type: cell-based, Echinococcus multilocularis; settings: for IC50: Echinococcus multilocularis
Description: To determine IC50 values, concentration–response curves were obtained at multiple time points (Figure 2E–G).
Figure 2 E. multilocularis protoscoleces after treatment with (A) DMSO, (B) (±)-PZQ (1 μM), (C) (R)-2 (30 μM), and (D) (S)-2 (100 μM). (E–G) Concentration–response motility graphs of E. multilocularis protosoleces after treatment with (±)-PZQ (blue circles), (R)-2 (red circles), and (S)-2 (purple circles) after (E) 0.5 h, (F) 12 h, and (G) 24 h. Data are plotted as % motility vs vehicle (DMSO) control (mean ± SEM). […]
Cestode motility assays . Protoscoleces of E. multilocularis strain MB17 were isolated from metacestode material grown in experimentally infected gerbils (kindly provided by Prof. Dr. K. Brehm, University of Würzburg, Germany). Extraction and acti vation of protoscoleces, as well as subsequent motility assays were performed as described previously. 2 In short, protoscoleces were activated by 10% DMSO for 3 h at 37°C, in a humid atmosphere, with 5% CO 2 and left to recover overnight in DMEM (Biochrom, Berlin, Germany) supplemented with 10% FBS (Biochrom) at 37°C, in a humid atmosphere, with 5% CO 2. The next day, 25 protoscoleces were distributed into individual wells of a white, flat -bottom 384 well plate (Huberlab, Aesch, Switzerland). PZQ analogs were added […]
The assay plate was sealed with a clear view seal foil (Huberlab), and motility was measured in a live cell imaging system (Nikon TE2000E, Hamatsu ORCA ER

Sequence of Eg.TRPMPZQ (W6UVV9 entry or part of it): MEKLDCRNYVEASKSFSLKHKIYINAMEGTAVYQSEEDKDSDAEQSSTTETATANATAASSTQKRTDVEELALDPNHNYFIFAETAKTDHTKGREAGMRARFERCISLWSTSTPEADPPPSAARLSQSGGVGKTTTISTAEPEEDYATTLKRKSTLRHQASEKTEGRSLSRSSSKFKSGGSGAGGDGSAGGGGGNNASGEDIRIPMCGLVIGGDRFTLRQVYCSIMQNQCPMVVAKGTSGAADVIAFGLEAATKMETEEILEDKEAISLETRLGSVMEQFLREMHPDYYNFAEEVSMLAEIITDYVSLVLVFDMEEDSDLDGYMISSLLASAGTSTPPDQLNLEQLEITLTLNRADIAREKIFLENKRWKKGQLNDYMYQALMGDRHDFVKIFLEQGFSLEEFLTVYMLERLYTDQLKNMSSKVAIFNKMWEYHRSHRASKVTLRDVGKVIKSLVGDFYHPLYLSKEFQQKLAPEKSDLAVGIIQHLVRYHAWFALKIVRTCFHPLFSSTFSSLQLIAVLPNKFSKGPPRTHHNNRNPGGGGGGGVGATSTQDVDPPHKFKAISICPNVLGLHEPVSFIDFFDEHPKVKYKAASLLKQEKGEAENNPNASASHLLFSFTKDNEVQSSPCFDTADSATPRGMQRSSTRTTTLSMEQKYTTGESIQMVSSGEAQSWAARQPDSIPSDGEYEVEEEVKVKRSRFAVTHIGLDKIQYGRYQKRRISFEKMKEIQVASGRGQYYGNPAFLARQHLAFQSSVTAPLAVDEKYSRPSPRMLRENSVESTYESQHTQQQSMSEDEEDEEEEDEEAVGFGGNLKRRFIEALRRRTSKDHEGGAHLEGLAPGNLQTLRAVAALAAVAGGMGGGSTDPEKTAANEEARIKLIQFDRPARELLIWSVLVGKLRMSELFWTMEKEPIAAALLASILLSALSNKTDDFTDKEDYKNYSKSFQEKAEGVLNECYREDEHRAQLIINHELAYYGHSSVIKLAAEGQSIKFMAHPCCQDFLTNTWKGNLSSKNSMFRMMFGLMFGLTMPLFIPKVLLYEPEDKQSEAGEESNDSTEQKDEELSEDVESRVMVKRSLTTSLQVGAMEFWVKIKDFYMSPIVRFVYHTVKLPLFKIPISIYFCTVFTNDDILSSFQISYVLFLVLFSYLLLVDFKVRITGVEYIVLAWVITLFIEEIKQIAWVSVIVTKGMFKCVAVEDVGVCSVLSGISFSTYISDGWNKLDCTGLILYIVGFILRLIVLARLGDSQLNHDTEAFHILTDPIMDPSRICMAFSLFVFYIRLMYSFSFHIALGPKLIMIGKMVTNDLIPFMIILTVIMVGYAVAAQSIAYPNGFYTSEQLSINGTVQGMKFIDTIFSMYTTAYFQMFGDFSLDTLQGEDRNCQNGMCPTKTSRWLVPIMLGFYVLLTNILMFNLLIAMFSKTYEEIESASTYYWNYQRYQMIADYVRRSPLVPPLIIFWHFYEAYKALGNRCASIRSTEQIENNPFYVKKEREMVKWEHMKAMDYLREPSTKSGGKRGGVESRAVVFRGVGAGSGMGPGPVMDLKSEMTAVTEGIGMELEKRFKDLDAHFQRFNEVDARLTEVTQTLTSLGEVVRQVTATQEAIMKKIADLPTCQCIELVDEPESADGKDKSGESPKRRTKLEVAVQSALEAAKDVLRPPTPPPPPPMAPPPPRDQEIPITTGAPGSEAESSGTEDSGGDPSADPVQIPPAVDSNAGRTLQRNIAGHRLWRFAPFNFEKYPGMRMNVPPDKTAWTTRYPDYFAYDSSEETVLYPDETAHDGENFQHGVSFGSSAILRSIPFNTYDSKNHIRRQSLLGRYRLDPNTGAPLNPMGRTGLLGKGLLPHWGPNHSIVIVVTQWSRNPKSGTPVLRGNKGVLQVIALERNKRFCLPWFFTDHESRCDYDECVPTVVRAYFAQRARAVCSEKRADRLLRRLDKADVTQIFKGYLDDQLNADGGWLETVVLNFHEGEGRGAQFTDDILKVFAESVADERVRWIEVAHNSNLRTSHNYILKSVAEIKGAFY
Sequence of Sm.TRPMPZQ (A0A5K4F0X5 entry or part of it): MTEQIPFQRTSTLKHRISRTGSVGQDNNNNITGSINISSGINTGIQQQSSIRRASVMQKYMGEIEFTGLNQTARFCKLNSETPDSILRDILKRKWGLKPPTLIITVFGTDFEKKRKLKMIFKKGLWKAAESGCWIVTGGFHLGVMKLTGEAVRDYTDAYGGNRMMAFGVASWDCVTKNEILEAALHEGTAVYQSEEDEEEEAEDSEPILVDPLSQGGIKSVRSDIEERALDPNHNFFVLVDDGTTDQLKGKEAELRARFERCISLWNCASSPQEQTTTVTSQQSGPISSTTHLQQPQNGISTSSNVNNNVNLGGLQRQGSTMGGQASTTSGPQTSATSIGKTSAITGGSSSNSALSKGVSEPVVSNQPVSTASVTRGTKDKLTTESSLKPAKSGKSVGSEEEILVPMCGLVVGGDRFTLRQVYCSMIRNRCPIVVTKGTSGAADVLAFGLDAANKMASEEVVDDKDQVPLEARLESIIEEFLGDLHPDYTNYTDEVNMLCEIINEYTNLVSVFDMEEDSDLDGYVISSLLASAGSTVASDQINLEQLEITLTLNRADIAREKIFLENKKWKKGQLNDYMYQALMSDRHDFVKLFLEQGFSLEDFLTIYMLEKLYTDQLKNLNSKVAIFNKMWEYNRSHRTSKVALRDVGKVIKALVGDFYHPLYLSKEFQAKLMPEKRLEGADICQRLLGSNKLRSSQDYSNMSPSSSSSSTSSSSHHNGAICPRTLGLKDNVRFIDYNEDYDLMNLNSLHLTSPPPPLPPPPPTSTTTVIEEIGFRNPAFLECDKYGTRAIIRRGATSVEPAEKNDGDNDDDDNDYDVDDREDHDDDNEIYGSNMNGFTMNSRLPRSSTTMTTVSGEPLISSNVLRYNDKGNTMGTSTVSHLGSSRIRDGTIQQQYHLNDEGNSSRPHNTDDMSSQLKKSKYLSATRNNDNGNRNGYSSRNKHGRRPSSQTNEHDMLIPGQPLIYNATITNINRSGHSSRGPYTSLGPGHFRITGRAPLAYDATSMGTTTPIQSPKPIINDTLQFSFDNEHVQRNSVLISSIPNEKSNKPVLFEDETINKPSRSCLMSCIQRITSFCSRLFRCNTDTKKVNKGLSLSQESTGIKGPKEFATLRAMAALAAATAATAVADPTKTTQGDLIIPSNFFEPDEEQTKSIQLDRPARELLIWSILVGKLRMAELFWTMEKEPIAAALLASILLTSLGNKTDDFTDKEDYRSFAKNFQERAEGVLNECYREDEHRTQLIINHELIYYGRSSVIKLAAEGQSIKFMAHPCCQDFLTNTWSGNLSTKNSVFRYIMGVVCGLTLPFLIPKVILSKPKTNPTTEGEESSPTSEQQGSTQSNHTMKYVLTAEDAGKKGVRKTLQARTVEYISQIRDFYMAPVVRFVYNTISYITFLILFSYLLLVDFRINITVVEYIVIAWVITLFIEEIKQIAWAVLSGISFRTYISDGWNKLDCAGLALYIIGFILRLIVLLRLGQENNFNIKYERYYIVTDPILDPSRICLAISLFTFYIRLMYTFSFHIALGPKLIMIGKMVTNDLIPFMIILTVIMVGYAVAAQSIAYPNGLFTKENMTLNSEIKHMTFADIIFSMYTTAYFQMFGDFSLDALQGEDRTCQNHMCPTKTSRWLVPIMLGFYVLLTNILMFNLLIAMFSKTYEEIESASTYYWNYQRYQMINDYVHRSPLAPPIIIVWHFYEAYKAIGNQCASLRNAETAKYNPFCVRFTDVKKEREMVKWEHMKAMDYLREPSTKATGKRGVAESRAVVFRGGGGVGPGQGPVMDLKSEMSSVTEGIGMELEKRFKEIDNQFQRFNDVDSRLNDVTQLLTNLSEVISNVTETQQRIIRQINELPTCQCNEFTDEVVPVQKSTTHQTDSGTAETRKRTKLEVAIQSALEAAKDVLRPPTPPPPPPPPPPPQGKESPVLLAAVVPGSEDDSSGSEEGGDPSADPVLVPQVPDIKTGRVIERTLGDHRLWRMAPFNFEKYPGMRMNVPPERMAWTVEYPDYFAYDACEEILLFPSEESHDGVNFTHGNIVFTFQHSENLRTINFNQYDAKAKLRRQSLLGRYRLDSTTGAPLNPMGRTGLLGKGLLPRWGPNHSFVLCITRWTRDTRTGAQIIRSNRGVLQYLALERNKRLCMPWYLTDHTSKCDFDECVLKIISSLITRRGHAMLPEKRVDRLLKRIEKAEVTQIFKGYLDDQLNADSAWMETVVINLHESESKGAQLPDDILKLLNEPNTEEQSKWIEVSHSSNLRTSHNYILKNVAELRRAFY

| EC50 (Sm.TRPMPZQ) | IC50 ([3]; 12 h postincubation) | SMILES | previous studies H. nana in vivo (activity grade, worm reduction) (H. nana) | activity at Sm.TRPMPZQ (in words) (Sm.TRPMPZQ) | this work: EC50 (μM) Sm.TRPMPZQ (Sm.TRPMPZQ) | previous studies S. mansoni in vivo (activity grade, worm reduction) (S. mansoni [1]) | activity at cestode TRPMPZQ orthologs (in words) (Eg.TRPMPZQ) | previous studies S. mansoni in vitro (activity grade) (S. mansoni [2]) | IC50 ([3]; after 24 h) | contraction of the protoscoleces (in words) ([3]; (±)-PZQ 1 μM, (R)-2 30 μM, (S)-2 100 μM, compared with vehicle control) | effect of prolonged treatment on protoscoleces (in words) ([3]; after 24 h) | effect of low concentrations on motility (in words) ([3]; low concentrations, early time points (0.5 h)) | concentrations activating both cestode TRPMPZQ representatives (Eg.TRPMPZQ) |
| --- | --- | --- | --- | --- | --- | --- | --- | --- | --- | --- | --- | --- | --- |
|  |  | O=C(c1cccnc1)N1CC(=O)N2CCc3ccccc3C2C1 (racemic) [(±)-2] | +++ | little activity | inactive | + | low-micromolar potency | + (“+” indicates a less than maximal effect at ≤320 μM) |  |  |  |  |  |
| > 100 µM |  | O=C(c1cccnc1)N1CC(=O)N2CCc3ccccc3[C@@H]2C1 [(R)-2] | +++ |  |  | ++ |  | 0 (“0” indicates no effect at ≤320 μM) | ~3 µM |  |  |  |  |
|  |  | O=C(C1CCCCC1)N1CC(=O)N2CCc3ccccc3[C@@H]2C1 [(R)-PZQ, reference compound] | +++ |  |  | +++ |  | +++ (“+++” indicates a maximal effect ≤3.2 μM) |  |  |  |  |  |
|  |  | O=C(c1cccnc1)N1CC(=O)N2CCc3ccccc3[C@H]2C1 [(S)-2] | ++ |  | inactive | 0 |  | 0 (“0” indicates no effect at ≤320 μM) | ~30 µM |  |  |  |  |
|  |  | O=C(C1CCCCC1)N1CC(=O)N2CCc3ccccc3[C@H]2C1 [(S)-PZQ, reference compound] | ++ |  |  | + |  | ++ (“++” indicates a maximal effect ≤320 μM) |  |  |  |  |  |
|  | ~0.1 µM | O=C(C1CCCCC1)N1CC(=O)N2CCc3ccccc3C2C1 (stereo not shown) [Compound 1, praziquantel] | +++ |  |  | +++ |  | +++ (“+++” indicates a maximal effect ≤3.2 μM) |  | sustained contraction | toxic | stimulated motility |  |
|  |  | O=C(c1ccc([N+](=O)[O-])cc1)N1CC(=O)N2CCc3ccccc3C2C1 (stereo not shown) [Compound 3] | ++ |  | inactive | + |  | 0 (“0” indicates no effect at ≤320 μM) |  |  |  |  |  |
|  |  | CNc1ccc(C(=O)N2CC(=O)N3CCc4ccccc4C3C2)cc1 (stereo not shown) [Compound 4] | +++ |  | inactive | ++ |  | 0 (“0” indicates no effect at ≤320 μM) |  |  |  |  |  |
|  |  | CN(C)c1ccc(C(=O)N2CC(=O)N3CCc4ccccc4C3C2)cc1 (stereo not shown) [Compound 5] | +++ |  | inactive | ++ |  | 0 (“0” indicates no effect at ≤320 μM) |  |  |  |  |  |
| 11.6 µM and 12 µM |  | Nc1ccc(C(=O)N2CC(=O)N3CCc4ccccc4C3C2)cc1 (stereo not shown) [Compound 6] | +++ |  |  | ++ |  | ++ (“++” indicates a maximal effect ≤320 μM) |  |  |  |  |  |
|  |  | N[C@H]1CC[C@@H](C(=O)N2CC(=O)N3CCc4ccccc4C3C2)CC1 (stereo partly shown) [Compound 7] | + | lacked activity | inactive | 0 | only weakly active | 0 (“0” indicates no effect at ≤320 μM) |  |  |  |  |  |
|  |  | O=C(C1CC1)N1CC(=O)N2CCc3ccccc3C2C1 (stereo not shown) [Compound 8] | ++ | Little activity | inactive | + | clearly active | 0 (“0” indicates no effect at ≤320 μM) |  |  |  |  | > 10 µM |

— article PMC10641913 (ACS Medicinal Chemistry Letters, 2023)
